Measurements: patent US10400008B2, “Modulators of the SRC-kinase activity for preventing or treating metastatic cancer” (Cancer Research Technology Limited, priority 2013, dated 2019)
“And” between values parts separate entries of the source, which are not always exact repeats. Identical values can stand only once. “Also recorded” adds a separate entry of the source.

Test system: PC-3 cells
Assay: Orthotopic PC-3 prostate cancer model: tumor volume and lymph node metastases
Format: in vivo, BALB/c nude mice
Details: for incidence of lymph node metastasis: vs vehicle; for Total tumor volumes during the study: animals 2.x (0.04 mg/kg by heads of Tables 2-3)
Procedure: Six week-old immunodeficient BALB/c nude mice were allocated to six 15-mice groups according to the body weight. PC-3 cells were inoculated orthotopically into prostates of the mice. Dosing (s.c.) was started at study day 1 and continued daily for 28 days.
Mice were weighed twice a week, and after 4 weeks, mice were sacrificed. Gross necropsy was performed to all animals at the end of the study, and all macroscopic signs were recorded. Volume of the prostate tumors was measured and prostate as well as prostate draining lymph nodes were collected for histology. The number of metastasis in lymph nodes was determined under microscope.
The 0.01 mg/ml, 0.1 mg/ml, 1 mg/ml, 2.5 mg/ml and 5 mg/ml dosing suspensions were prepared from test peptide VAL001 by dilution to PBS. […] New dosing suspensions were prepared every week.
An animal model was used that can be effectively used for testing the effects of cancer drug candidates on the primary tumor growth in prostate microenvironment. In this model, human prostate cancer cells are inoculated into prostate of 4-5 week old male BALB/c nude mice. This mouse strain is immunodeficient, allowing rapid growth and spread of the human cancer cells. Within four weeks after the inoculation, animal develop large tumor to prostate and metastases to regional iliac and sacral lymph nodes. The animals are sacrificed at 4 weeks after inoculation, and their prostate with tumor and regional lymph nodes are collected for further histomorphometric analysis.
Male BALB/c nude mice (BALB/c OlaHsd-Foxn1^nu, obtained from Harlan, The Netherlands) were used for this study. The age of the animals was 6-7 weeks, and their body weights were approximately 16-23 g at the beginning of the study. The mice were specific pathogen free (SPF) and isolator-reared animals. Correct age and good clinical health were qualifications for the study. The acclimatization period for the mice was 4 days. Allocation to groups was performed by randomization procedure based on body weight. The animals were marked with ear marks. For orthotopic inoculations the mice were anesthetized with inhalation of isoflurane. Analgesia was provided before and 2 days after the orthotopic inoculation with buprenorphine: 0.1 mg/kg, s.c.
At the end of the study, the animals were weighed and sacrificed with cervical dislocation under anesthesia. Necropsy was carried out in all animals. Macroscopic findings were recorded on the follow-up forms. Tissue samples from prostate with tumor and lymph nodes were collected for histology and number of metastases in lymph nodes was determined.
Statistical analysis was performed with R: A Language and Environment for Statistical Computing (version 2.14.2; R Development Core Team, Vienna, Austria). The mean and standard deviation of the body weights and the tumor volumes at sacrifice were determined. Normality of the distributions and homogeneity of variance were checked before further analyses. In case of violating these assumptions, either log transformation or other appropriate transformation (e.g. square root, reciprocal) was applied. If the assumptions were fulfilled as such or after transformation, one-way ANOVA was used to study if the values obtained between the groups were statistically different (with p<0.05). If differences were found, Tukey's HSD test was used for pairwise comparison between all groups. If the assumptions were not fulfilled even after the transformations described above, the non-parametric Kruskal-Wallis test followed by Mann-Whitney U-test were used.
The statistical analysis of incidence of lymph node metastases was done using Fisher's exact test as one-sided test in which the null hypothesis reflected the assumption that the treatment […].

With Ac-PPPHPHARIK-NH2 [VAL001] the “inhibition of the development of lymph node metastases” value (0.04 mg/kg s.c. daily 28 days) was 50%, the “incidence of lymph node metastasis” value (0.04 mg/kg s.c. daily 28 days, Fisher's exact test p=0.01643) was “statistically significantly less; also recorded: inhibited statistically significantly” and the “inhibition of the development of lymph node metastases” value (0.4 mg/kg s.c. daily 28 days) was 50%. The “incidence of lymph node metastasis” value (0.4 mg/kg s.c. daily 28 days, Fisher's exact test p=0.03913) was “statistically significantly less; also recorded: inhibited statistically significantly”, the “decrease in tumor volume” value (0.4 mg/kg s.c. daily 28 days, not statistically significant) was 35% and the “statistically significant effects on orthotopic tumor growth” value (0.04-20 mg/kg s.c. daily 28 days) was “not observed”. For the same substance, the “tumor volumes between the treatment groups” value (0.04-20 mg/kg s.c. daily 28 days, at sacrifice) was “no statistically significant differences”, the “Total tumor volumes during the study” value (day 5, single animals) was 22.3 and 11.5 and 21.5 and 16.9 and 26.7 and 29.3 (2×) and 27.8 and the “Total tumor volumes during the study” value (day 7, single animals, in mm³ (unit assumed)) was 21.1 and 7.8 and 17.8 and 22.0 and 16.9 and 18.3 and 31.2 and 29.6. The “Total tumor volumes during the study” value (day 9, single animals, in mm³ (unit assumed)) was 28.2 and 18.2 and 32.4 and 21.3 and 29.6 and 57.8 and 76.4 and 34.4, the “Total tumor volumes during the study” value (day 12, single animals, in mm³ (unit assumed)) was 51.3 and 20.1 and 39.6 and 56.1 and 24.6 and 57.0 and 116.3 and 70.3 and the “Total tumor volumes during the study” value (day 14, single animals, in mm³ (unit assumed)) was 71.8 and 55.8 and 72.5 and 65.8 and 54.7 and 114.0 and 176.1 and 106.7. The “Total tumor volumes during the study” value (day 16, single animals, in mm³ (unit assumed)) was 87.7 and 70.9 and 140.3 and 85.4 and 62.6 and 167.3 and 183.2 and 112.1, the “Total tumor volumes during the study” value (day 19, single animals, in mm³ (unit assumed)) was 202.0 and 163.3 and 186.2 and 140.9 and 104.4 and 181.7 and 332.0 and 227.3 and the “Total tumor volumes during the study” value (day 21, single animals, in mm³ (unit assumed)) was 182.3 and 152.1 and 196.2 and 139.5 and 120.6 and 278.5 and 365.1 and 240.1. The “Total tumor volumes during the study” value (day 23, single animals, in mm³ (unit assumed)) was 158.4 and 95.0 and 289.5 and 181.8 and 127.8 and 278.8 and 386.3 and 323.8 and 345.6, the “Total tumor volumes during the study” value (day 26, single animals, in mm³ (unit assumed)) was 277.2 and 233.9 and 254.0 and 243.7 and 239.4 and 381.2 and 618.5 and 328.7 and 518.9 and the “Total tumor volumes during the study” value (day 29, single animals, in mm³ (unit assumed)) was 382.9 and 204.8 and 258.0 and 216.8 and 245.1 and 418.0 and 750.0 and 430.6 and 288.0.
